Experimental data taken from patent US20230210999A1, “TARGETED PROTEASE DEGRADATION (TED) PLATFORM” (EUBULUS BIOTHERAPEUTICS INC., priority 2020, published 2023).
Like-named read-outs stand apart in the source and are kept apart here.

Columns and labels:
HT-29 cells = assay: Cell proliferation experiment, HT-29; assay type: cell-based; details: Homo sapiens; HT-29 cells, 72 h; read-out: Inhibitory activity IC50 of tested compounds on HT-29 cells
Protocol: (§1) Reagents: RPMI-1640 medium, McCoy's 5A medium, IMDM medium, MEM medium, L-15 medium, fetal bovine serum. Penicillin-Streptomycin double antibody, trypsin, etc., 2-mercaptoethanol, NEAA, pyruvate, etc.
(§2) The cells were cultured in conventional ways, and the cells should be passed at least 2 generations before plating. Cells at the logarithmic growth phase were collected, prepared into single cell suspensions and counted. The concentration of cells was adjusted to the desired concentration, and cells were inoculated into a 96-well cell culture plate at 100 μl per well. 100 μL of complete medium of the test compound were added to each well, set up 2 duplicate wells for each concentration, and diluted with a 5-fold gradient, and continued to culture for 72 h. All cells were subjected to IC50 test for corresponding samples. The experimental results are shown in Test Example 4.
(§3) The fluorescence intensity of each well was detected using the Alarm blue method, and IC50 was calculated.
(§4) IC50 was calculated according to the following formula:
(§5) Y=Max+(Min−Max)/[1+(X/IC50)×Slope]
(§6) wherein Min, Max and Slope represent the minimum, maximum and slope respectively.

NCIH82 cells = assay: Cell proliferation experiment, NCI-H82; assay type: cell-based, human; details: Homo sapiens
Method in brief: (§7)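 Alamar blue fluorescence after 72 h of compound exposure; IC50 from 4-parameter fit (Min, Max, Slope). Cells passaged ≥2 times, log-phase, 96-well, duplicate wells, 5-fold serial dilutions.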

U-87MG cells = assay: Cell proliferation experiment, U-87MG; assay type: cell-based; details: Homo sapiens; U-87MG cells, 72 h; read-out: Inhibitory activity IC50 of tested compounds on U-87MG cells
Protocol: as §1, §2, §3, §4, §5, §6

Daudi cells = assay: Cell proliferation experiment, Daudi; assay type: cell-based, human; details: Homo sapiens, Daudi, Daudi cells
Method in brief: as §7

MV4;11 cells = assay: Cell proliferation experiment (Alamar blue, 72 h), MV4;11; assay type: cell-based, human; details: Homo sapiens
Method in brief: as §7

MDA-MB-231 cells = assay: Cell proliferation experiment, MDA-MB-231; assay type: cell-based, human; details: Homo sapiens, MDA-MB-231, MDA-MB-231 cells; read-out: Inhibitory activity IC50 on MDA-MB-231
Method in brief: as §7

PC-3 = assay: Cell proliferation experiment, PC-3; assay type: cell-based, human; details: Homo sapiens, PC-3, PC-3 cells; read-out: Inhibitory activity IC50 on PC-3
Method in brief: as §7

[1] = NCI-H82, 72 h, NCIH82 cells, 72 h, read-out: Inhibitory activity IC50 of tested compounds on NCIH82 cells
[2] = 72 h, 72 h, read-out: Inhibitory activity IC50 of tested compounds on Daudi cells
[3] = MV4-11, 72 h, MV4;11 cells, 72 h, read-out: Inhibitory activity IC50 of tested compounds on MV4;11 cells

Row | Compound | IC50 (HT-29 cells) [µM] | IC50 (NCIH82 cells; [1]) [µM] | IC50 (U-87MG cells) [µM] | IC50 (Daudi cells; [2]) [µM] | IC50 (MV4;11 cells; [3]) [µM] | IC50 (MDA-MB-231 cells) [µM] | IC50 (PC-3) [µM] | IC50 (NCIH82 cells; NCI-H82, NCI-H82 cells, read-out: Inhibitory activity IC50 on NCI-H82) [µM] | IC50 (Daudi cells; read-out: Inhibitory activity IC50 on Daudi) [µM] | IC50 (MV4;11 cells; MV4-11, MV4;11 cells, read-out: Inhibitory activity IC50 on MV4;11) [µM]
1 | CC[C@@H]1C(=O)N(C)c2cnc(Nc3ccc(C(=O)NC4CCN(CCOCCCNCCC#Cc5cccc6c5CN(C5CCC(=O)NC5=O)C6=O)CC4)cc3OC)nc2N1C1CCCC1 (some centres unmarked) [Compound 908] | 0.3 to 1 | ≤ 1 | 0.1 to 0.5 | ≤ 0.1 | ≤ 0.1 |  |  |  |  | 
2 | CC[C@@H]1C(=O)N(C)c2cnc(Nc3ccc(C(=O)NC4CCN(CCCCNCCC#Cc5cccc6c5CN(C5CCC(=O)NC5=O)C6=O)CC4)cc3OC)nc2N1C1CCCC1 (some centres unmarked) [Compound 909] | ≤ 0.3 | ≤ 1 | ≤ 0.1 | ≤ 0.1 | ≤ 0.1 |  |  |  |  | 
3 | CC[C@@H]1C(=O)N(C)c2cnc(Nc3ccc(C(=O)NCCOCCNCCC(=O)N[C@H](C(=O)N4C[C@H](O)C[C@H]4C(=O)NCc4ccc(-c5scnc5C)cc4)C(C)(C)C)cc3OC)nc2N1C1CCCC1 [Compound 853] | > 1 | > 1 | > 1 | > 1 | > 1 |  |  |  |  | 
4 | CC[C@@H]1C(=O)N(C)c2cnc(Nc3ccc(C(=O)NCCCC(N)C(=O)Nc4cccc5c4CN(C4CCC(=O)NC4=O)C5=O)cc3OC)nc2N1C1CCCC1 (stereo in doubt) [Compound 856] |  | > 1 | > 1 | > 1 | 0.1 to 1 |  |  |  |  | 
5 | CC[C@@H]1C(=O)N(C)c2cnc(Nc3ccc(C(=O)NC4CCN(C[C@H](N)COCC#Cc5cccc6c5CN(C5CCC(=O)NC5=O)C6=O)CC4)cc3OC)nc2N1C1CCCC1 (some centres unmarked) [Compound 876] | > 1 | > 1 | 0.1 to 0.5 | 0.1 to 1 | ≤ 0.1 |  |  |  |  | 
6 | CC[C@@H]1C(=O)N(C)c2cnc(Nc3ccc(C(=O)NCCOCCOCCCNCCC#Cc4cccc5c4CN(C4CCC(=O)NC4=O)C5=O)cc3OC)nc2N1C1CCCC1 (some centres unmarked) [Compound 894] | > 1 | > 1 | 0.1 to 0.5 | 0.1 to 1 | ≤ 0.1 |  |  |  |  | 
7 | CC[C@@H]1C(=O)N(C)c2cnc(Nc3ccc(C(=O)NCCCOCCCNCCC#Cc4cccc5c4CN(C4CCC(=O)NC4=O)C5=O)cc3OC)nc2N1C1CCCC1 (some centres unmarked) [Compound 912] | 0.3 to 1 | ≤ 1 | ≤ 0.1 | ≤ 0.1 | ≤ 0.1 |  |  |  |  | 
8 | CC[C@@H]1C(=O)N(C)c2cnc(Nc3ccc(C(=O)NC4CCN(CCOCCNC5CN(c6cccc7c6C(=O)N(C6CCC(=O)NC6=O)C7=O)C5)CC4)cc3OC)nc2N1C1CCCC1 (some centres unmarked) [Compound 857] | > 1 | ≤ 1 | 0.5 to 1 | 0.1 to 1 | ≤ 0.1 |  |  |  |  | 
9 | CC[C@@H]1C(=O)N(C)c2cnc(Nc3ccc(C(=O)NCCOCCOCCOCCNCCC(=O)N[C@H](C(=O)N4C[C@H](O)C[C@H]4C(=O)NCc4ccc(-c5scnc5C)cc4)C(C)(C)C)cc3OC)nc2N1C1CCCC1 [Compound 850] | > 1 | > 1 | > 1 | > 1 | > 1 |  |  |  |  | 
10 | CC[C@@H]1C(=O)N(C)c2cnc(Nc3ccc(C(=O)NCCOCCNCCOCCC#Cc4cccc5c4CN(C4CCC(=O)NC4=O)C5=O)cc3OC)nc2N1C1CCCC1 (some centres unmarked) [Compound 896] | > 1 | > 1 | 0.5 to 1 | 0.1 to 1 |  |  |  |  |  | 
11 | CNC(=O)c1ccccc1Nc1nc(Nc2ccc(N3CCN(C(=O)NC4CCC(NCCC#Cc5cccc6c5CN(C5CCC(=O)NC5=O)C6=O)CC4)CC3)cc2)ncc1Cl (centres unmarked) [UB-181187] |  |  |  |  |  | > 1 | 0.01 to 0.1 | 0.1 to 1 | > 1 | 0.01 to 0.1
